# According to PubChem BioAssay AID2745 (NMMLSC, 2010):
# The source made the active and inactive calls. The rule behind the calls is not given here.
# Test: concentration series on yeast TOR reporter LAP4 – cell-based, MLPCN hits, flow cytometry, dose response (AID 2745);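 note: yeast exposed to compound for three hours at 30 degrees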
# Details: S. cerevisiae LAP4-GFP reporter, flow cytometry fluorescence; at 33 µM (top of the series)
row,SMILES,LAP4-GFP fluorescence (kMESF)
1,CCC(=O)Oc1oc(-c2ccccc2)nc1C=Nc1ccccc1OC,4.64 kMESF (inactive)
2,COc1cc(/C=C2\C(=O)ON=C2c2ccc(Cl)cc2)ccc1O,9.12 kMESF (inactive)
3,N#Cc1ccc(N=c2ssnc2Cl)cc1,9.41 kMESF (inactive)
4,Cc1ccnc(N2C(=O)c3cccc4c([N+](=O)[O-])ccc(c34)C2=O)c1,33.2 kMESF (inactive)
5,CC1=C(C)/C(=N\OS(=O)(=O)c2ccc(C)cc2)C=CC1=O,5.77 kMESF (inactive)
6,CCC1(c2ccccc2)ON(c2c(Br)cccc2Br)C1=O (centres undefined),7.52 kMESF (inactive)
7,COc1ccc(N=Cc2nc(-c3ccccc3)oc2OC(=O)c2ccccc2)cc1,4.09 kMESF (inactive)
8,CCCc1ccc(OCC(=O)NNC(=S)NC(=O)c2ccco2)cc1,11.2 kMESF (inactive)
9,CCOC(=O)C(C(=O)OCC)C(C(=O)OCC)N1CCOCC1 (centres undefined),6.39 kMESF (inactive)
10,O=C(Nc1ccc(N2CCOCC2)cc1)C1CCN(S(=O)(=O)c2ccc3c(c2)OCCO3)CC1,3.78 kMESF (inactive)
11,CCC(=O)Nc1ccc(NC(=O)c2cc3ccccc3o2)c(OC)c1,3.41 kMESF (inactive)
12,Oc1c(Br)cc(Br)cc1C=Nc1ccc2c(c1)OCO2,10.8 kMESF (inactive)
13,COc1ccc(C(=O)/C=C2/C(=O)Nc3ccccc32)c(OC)c1,10.1 kMESF (inactive)
14,O=C(Oc1oc(-c2ccco2)nc1C=Nc1ccc(Cl)cc1)c1ccco1,8.92 kMESF (inactive)
15,CC(C)C(=O)NC(c1cccs1)c1cc([N+](=O)[O-])c2cccnc2c1O (centres undefined),10.5 kMESF (inactive)
16,Cc1ccc2[nH]c(C)c(/C=C/c3cc[n+](C)cc3)c2c1,8.71 kMESF (inactive)
17,O=C1Nc2ccc(Br)cc2/C1=C/C(=O)c1ccc2c(c1)OCO2,10.4 kMESF (inactive)
18,CCCc1cc(=O)oc2cc(C)cc(OCC(=O)NC3CC3)c12,3.74 kMESF (inactive)
19,CCN(CC)c1ccc(/C=C2\C(=O)c3ccc(C(=O)O)cc3C2=O)cc1,392 kMESF (inactive)
20,CCN(CC(=O)NC(C)(C)C)C(=O)COc1c(Cl)cc(Cl)c2ccc(C)nc12,11.7 kMESF (inactive)
21,CCCCC1OC23CCCCC2C(C#N)(C(=N)O3)C1(C#N)C#N (centres undefined),3.98 kMESF (inactive)

row,SMILES,LAP4-GFP fluorescence (kMESF)
1,O=[N+]([O-])c1ccc(S(=O)(=O)c2ccccc2)nc1,9.63 kMESF (inactive)
2,Cc1ccc(S(=O)(=O)N2CCCC2C(=O)NCc2ccncc2)cc1 (centres undefined),4.58 kMESF (inactive)
3,Cc1cccc(NC(c2ccc(C)s2)c2ccc3ccc(C)nc3c2O)n1 (centres undefined),16.8 kMESF (inactive)
4,N/C(Cc1ccc(Cl)cc1Cl)=N\OC(=O)c1ccccc1,9.94 kMESF (inactive)
5,Cc1ccc(N=Nc2ccc(O)c3ncccc23)cc1,4.95 kMESF (inactive)
6,O=C(O)c1ccc(COc2ccccc2C=C2C(=O)c3ccccc3C2=O)cc1,4.11 kMESF (inactive)
7,COc1ccc2c(c1)c1nnc(SC)nc1n2C,4.19 kMESF (inactive)
8,O=C(/C=C/Sc1ncn[nH]1)c1ccc(Cl)cc1,15.9 kMESF (inactive)
9,CCN(CC)c1ccc2cc(-c3nc(-c4ccc(OC)cc4)cs3)c(=O)oc2c1,1.57 kMESF (inactive)
10,COc1ccccc1[C@@]1(C)ON(c2ccccc2C(F)(F)F)C1=O,7.08 kMESF (inactive)
11,CCN1/C(=C/C=C/c2sc3ccccc3[n+]2CC)Sc2ccccc21,7.72 kMESF (inactive)
12,Cc1c(NC2=C(Cl)C(=O)N(c3ccccc3Cl)C2=O)c(=O)n(-c2ccccc2)n1C,3.78 kMESF (inactive)
13,O=C(/C=C/c1cccc([N+](=O)[O-])c1)c1ccc([N+](=O)[O-])o1,2.78 kMESF (inactive)
14,CC(=O)OC[C@]12CC[C@H]3[C@@](C)(CC[C@H]4C(C)(C)CCC[C@]34C)[C@@H]1C[C@H](C1=CC(=O)O[C@@H]1OC(C)=O)O2,13.6 kMESF (inactive)
15,Cc1cccc(N2C(=O)C(Cl)=C(Nc3c(C)n(C)n(-c4ccccc4)c3=O)C2=O)c1C,6.11 kMESF (inactive)
16,O=C1ON=C(c2ccc(Cl)cc2)/C1=C/c1ccc(O)cc1,6.72 kMESF (inactive)
17,CC(=O)N(\C=C/C=C/C=C1\Sc2ccccc2C1=O)c1ccccc1,14.2 kMESF (inactive)
18,CCN1/C(=C/c2ccc3cc(C)ccc3[n+]2CC)Sc2ccc3sccc3c21,10.7 kMESF (inactive)
19,O=C(/C=C/c1ccccc1[N+](=O)[O-])c1ccccc1Br,15.6 kMESF (inactive)
20,O=C1c2ccccc2C(=O)N1OS(=O)(=O)c1ccc(F)cc1,9.97 kMESF (inactive)
21,Cc1ccc(S(=O)(=O)/N=C(\Sc2ccccc2)c2ccccc2)cc1,6.11 kMESF (inactive)

row,SMILES,LAP4-GFP fluorescence (kMESF)
1,Oc1ccc(N=Nc2ccccc2)o1,18.8 kMESF (inactive)
2,O=C(Nc1nnc(-c2ccc(F)cc2)o1)c1cc(Cl)sc1Cl,6.71 kMESF (inactive)
3,C=C1C(O)[C@@H]2O[C@]3(CC[C@H](/C=C/C(C)[C@@H]4CC(C)=CC5(O[C@H](C[C@@](C)(O)C(=O)O)CCC5O)O4)O3)CC[C@H]2O[C@@H]1C(O)CC(C)[C@H]1OC2(CCCCO2)CCC1C (some centres undefined),11.7 kMESF (inactive)
4,COc1ccc(-c2cc(C(F)(F)F)nc(S(C)(=O)=O)n2)cc1,10.6 kMESF (inactive)
5,Cc1ccc(/C=c2\sc3nc(-c4cccs4)nn3c2=O)o1,7.32 kMESF (inactive)
6,Cc1ccc(C(CC(=O)O)NC(=O)c2ccc(S(=O)(=O)N3CC(C)OC(C)C3)cc2)cc1 (centres undefined),3.28 kMESF (inactive)
7,O=C(NC(=S)NNC(=O)c1ccc(Cl)cc1Cl)c1cccnc1,4.37 kMESF (inactive)
8,CCN1C(=O)/C(=C\C(=O)c2cccs2)c2cc(Br)ccc21,12 kMESF (inactive)
9,O=C(CCS(=O)(=O)c1ccccc1)Nc1nc(-c2ccccn2)cs1,3.91 kMESF (inactive)
10,Oc1c(CN2CCCCC2)cc(Br)c2cccnc12,16 kMESF (inactive)
11,CCCCCn1c(=O)c(C(=O)Nc2nc3ccccc3[nH]2)c(O)c2ccccc21,2.43 kMESF (inactive)
12,COc1ccc(NC2=C(Cl)C(=O)N(CCc3ccccc3)C2=O)cc1,5.81 kMESF (inactive)
13,Cc1cc(=O)n2c3c(sc2n1)C(=O)N(Cc1ccccc1)C3=O,9.31 kMESF (inactive)
14,CC(C)[C@]1(c2ccccc2)ON(c2ccccc2C(F)(F)F)C1=O,2.53 kMESF (inactive)
15,CC(=O)n1cc(C(C[N+](=O)[O-])SCCN)c2ccccc21 (centres undefined),4.35 kMESF (inactive)
16,Cc1ccc(C)c(/C=C/C(=O)c2ccccc(=O)c2O)c1,-0.2 kMESF (inactive)
17,CCN(CC)c1ccc2cc(-c3nc4ccccc4[nH]3)c(=O)oc2c1,3.03 kMESF (inactive)
18,O=C1c2cccc3c([N+](=O)[O-])ccc(c23)C(=O)N1CCc1ccccn1,7.15 kMESF (inactive)
19,CC[C@]1(c2ccccc2OC)ON(c2ccccc2C(F)(F)F)C1=O,7.52 kMESF (inactive)
20,COc1ccc(CCNC2=C(Cl)C(=O)N(CCc3ccc(OC)c(OC)c3)C2=O)cc1OC,5.91 kMESF (inactive)
21,C#CCOCCOCCOCCNc1nc(N2CCN(C(=O)CCCCCCCCCCNC(=O)[C@H](CCCCN)n3cc(CCO)nn3)CC2)nc(N2CCN(C(=O)CCCCCCCCCCNC(=O)[C@H](CCCN=C(N)N)n3cc(C[C@@H](C)CC)nn3)CC2)n1,6.17 kMESF (inactive)

row,SMILES,LAP4-GFP fluorescence (kMESF)
1,CCCCc1ccc(NC(=O)CC(C)=O)cc1,3.54 kMESF (inactive)
2,C#CCOCCOCCOCCNc1nc(N2CCN(C(=O)CCCCCCCCCCNC(=O)[C@H](CCCCN)n3cc(CCCC(=O)O)nn3)CC2)nc(N2CCN(C(=O)CCCCCCCCCCNC(=O)[C@H](CCCN=C(N)N)n3cc(C[C@@H](C)CC)nn3)CC2)n1,5.16 kMESF (inactive)
3,CCc1nc2ccccc2c(=O)n1NC(=O)c1c(O)c2cccc3c2n(c1=O)CCC3,3.04 kMESF (inactive)
4,O=C(OCn1ncc(Br)c(Br)c1=O)c1ccccc1Cl,10.5 kMESF (inactive)
5,c1ccc(-c2csc(Nc3cccnc3)n2)nc1,3.67 kMESF (inactive)
6,O=C1C=CC(=O)N1c1ccc(OC(F)F)cc1,4.2 kMESF (inactive)
7,Cc1cccc(C(=O)NNC(=S)NC(=O)c2ccccc2)c1,9.62 kMESF (inactive)
8,N/C(=N\OC(=O)c1ccccc1Cl)c1ccc(Cl)cc1,11.3 kMESF (inactive)
9,CCn1c(/C=C/c2ccc([N+](=O)[O-])o2)nc2ccccc2c1=O,-69.5 kMESF (inactive)
10,Cc1ccc(/C=C2\SC(=S)N(Cc3ccccc3)C2=O)o1,18.1 kMESF (inactive)
11,O=C(Nc1nnc(-c2ccc3c(c2)CCCC3)o1)c1ccc(Cl)cc1Cl,5.77 kMESF (inactive)
12,CCOC(=O)C1=C(O)c2ccccc2C(=O)/C1=C\c1ccc(C)cc1,-35.8 kMESF (inactive)
13,Cc1ccc(N=c2ssnc2Cl)cc1,10.6 kMESF (inactive)
14,COc1ccccc1[C@]1(C)ON(c2ccccc2C(F)(F)F)C1=O,7.79 kMESF (inactive)
15,COc1ccc(N2C(=O)CC(Sc3ncn[nH]3)C2=O)c(OC)c1 (centres undefined),13.7 kMESF (inactive)
16,Cc1cc(NC(c2ccc(Cl)cc2)c2ccc3cccnc3c2O)no1 (centres undefined),11.2 kMESF (inactive)
17,O=[N+]([O-])c1cc(CN2CCN(c3cccc(C(F)(F)F)c3)CC2)c2cccnc2c1O,7.46 kMESF (inactive)
18,O=C(Nc1cccc(-c2csc(Nc3ccccc3)n2)c1)c1ccccc1,4.18 kMESF (inactive)
19,O=[N+]([O-])c1cc(CN2CCN(c3ccccc3)CC2)c(O)c2ncccc12,14.7 kMESF (inactive)
20,CC[C@]1(c2ccccc2C)ON(c2ccccc2C(F)(F)F)C1=O,3.33 kMESF (inactive)
21,O=C(/C=C/c1ccnc2ccccc12)c1cccs1,11.4 kMESF (inactive)
